{
  "source": "paper PMC9414913",
  "about": "“Tyrosinase Inhibitors Derived from Chemical Constituents of Dianella ensifolia” (Plants, 2022)",
  "target": "mushroom tyrosinase (Agaricus bisporus, UniProt C7FF04)",
  "sequence (G1K3P4 entry or part of it)": "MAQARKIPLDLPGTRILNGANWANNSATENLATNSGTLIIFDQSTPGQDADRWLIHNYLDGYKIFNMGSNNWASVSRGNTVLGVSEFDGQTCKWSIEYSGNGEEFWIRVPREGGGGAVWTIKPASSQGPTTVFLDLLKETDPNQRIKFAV",
  "sequence (C7FF04 2-392)": "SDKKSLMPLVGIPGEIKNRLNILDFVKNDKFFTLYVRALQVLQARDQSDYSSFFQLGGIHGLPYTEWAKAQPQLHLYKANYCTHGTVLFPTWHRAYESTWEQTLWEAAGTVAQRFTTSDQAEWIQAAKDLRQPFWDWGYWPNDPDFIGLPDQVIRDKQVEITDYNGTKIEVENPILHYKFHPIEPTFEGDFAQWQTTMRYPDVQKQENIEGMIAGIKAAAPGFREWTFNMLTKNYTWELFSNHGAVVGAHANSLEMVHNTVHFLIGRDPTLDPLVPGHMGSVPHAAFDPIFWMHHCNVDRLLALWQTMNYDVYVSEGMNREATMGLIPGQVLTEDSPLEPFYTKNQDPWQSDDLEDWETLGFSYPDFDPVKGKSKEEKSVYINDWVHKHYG",
  "test": "In vitro mushroom tyrosinase inhibition assay",
  "format": "biochemical",
  "settings": "for mushroom tyrosinase inhibitory effect, in words: compared with arbutin (positive control)",
  "experimental": "The mushroom tyrosinase inhibitory assay has been described in detail previously. Briefly, various concentrations of test compounds (100 μL) and 2 mM L-tyrosine (80 μL, Sigma-Aldrich, St. Louis, MO, USA) were mixed in 96-well plates. 20 μL of mushroom tyrosinase (1000 U/mL, Sigma-Aldrich, USA) was added to initiate the assay. The absorbance of the mixture was measured at 490 nm using a microplate reader (μQuant™, BioTek Winooski, VT, USA).",
  "data": [
    {"smiles": "CC(=O)c1c(C)cc2c(c1O)C(=O)CCC2O", "note": "(stereo not shown) [Compound 41, 7-acetyl-4,8-dihydroxy-6-methyl-1-tetralone]", "values": [
      {"measurement": "mushroom tyrosinase inhibitory effect, in words", "result": "moderate or weak activity"}
    ]},
    {"smiles": "Cc1c(O)ccc2c1O[C@H](c1ccc(O)cc1)CC2", "note": "[Compound 10, (2S)-7,4’-dihydroxy-8-methylflavan]", "values": [
      {"measurement": "mushroom tyrosinase inhibitory effect, in words", "result": "moderate or weak activity"}
    ]},
    {"smiles": "COc1ccc2c(c1C)OC(C1(O)C=CC(=O)CC1)CC2", "note": "[Compound 4, (2S,1′S)-4-hydroxy-4-(7-methoxy-8-methylchroman-2-yl)-cyclohex-2-enone]", "values": [
      {"measurement": "mushroom tyrosinase inhibitory effect, in words", "result": "moderate or weak activity"}
    ]},
    {"smiles": "Oc1ccc([C@@H]2CCc3ccc(O)cc3O2)cc1", "note": "[Compound 8, (2S)-7,4’-dihydroxyflavan]", "values": [
      {"measurement": "mushroom tyrosinase inhibitory effect, in words", "result": "moderate or weak activity"}
    ]},
    {"smiles": "COc1cc2c(cc1OC)O[C@H](c1ccc(O)cc1)CC2", "note": "[Compound 1, (2S)-4’-hydroxy-6,7-dimethoxyflavan]", "values": [
      {"measurement": "mushroom tyrosinase inhibitory effect, in words", "result": "moderate or weak activity"}
    ]},
    {"smiles": "COc1ccc2c(c1C)O[C@H](c1ccc(O)c(O)c1)CC2", "note": "[Compound 2, (2S)-3’,4’-dihydroxy-7-methoxy-8-methylflavan]", "values": [
      {"measurement": "mushroom tyrosinase inhibitory effect, in words", "result": "more substantial inhibitory effect against mushroom tyrosinase than arbutin"}
    ]},
    {"smiles": "COc1ccc2c(c1)O[C@H](c1ccccc1O)CC2", "note": "[Compound 3, (2S)-2’-hydroxy-7-methoxyflavan]", "values": [
      {"measurement": "mushroom tyrosinase inhibitory effect, in words", "result": "moderate or weak activity"}
    ]},
    {"smiles": "O=c1cc(-c2ccc(O)cc2)oc2cc(O)cc(O)c12", "note": "[Compound 21, apigenin]", "values": [
      {"measurement": "mushroom tyrosinase inhibitory effect, in words", "result": "more substantial inhibitory effect against mushroom tyrosinase than arbutin"}
    ]},
    {"smiles": "COc1ccc([C@@H]2CCc3cc(OC)c(O)cc3O2)cc1O", "note": "[Compound 13, (2S)-7,3′-dihydroxy-6,4’-dimethoxyflavan]", "values": [
      {"measurement": "mushroom tyrosinase inhibitory effect, in words", "result": "moderate or weak activity"}
    ]},
    {"smiles": "O=C1C[C@@H](c2ccc(O)cc2)Oc2cc(O)ccc21", "note": "[Compound 15, (2S)-liquiritigenin]", "values": [
      {"measurement": "mushroom tyrosinase inhibitory effect, in words", "result": "more substantial inhibitory effect against mushroom tyrosinase than arbutin"},
      {"measurement": "IC50", "setting": "substrate 2 mM L-tyrosine, absorbance at 490 nm, read-out: IC50 (mushroom tyrosinase inhibitory effect)", "result": "109 ± 6.2", "unit": "µM"}
    ]},
    {"smiles": "COc1ccc2c(c1C)O[C@H](c1cc(O)c(OC)c(O)c1)CC2", "note": "[Compound 12, (2S)-3’,5’-dihydroxy-7,4’-dimethoxy-8-methylflavan]", "values": [
      {"measurement": "mushroom tyrosinase inhibitory effect, in words", "result": "moderate or weak activity"}
    ]},
    {"smiles": "O=c1cc(-c2ccc(O)c(O)c2)oc2cc(O)cc(O)c12", "note": "[Compound 20, luteolin]", "values": [
      {"measurement": "mushroom tyrosinase inhibitory effect, in words", "result": "more substantial inhibitory effect against mushroom tyrosinase than arbutin"}
    ]}
  ]
}
